Source: article PMC12135066, “Design and Preclinical Evaluation of Novel uPAR-Targeting Radiopeptides Modified with an Albumin-Binding Entity” (Molecular Pharmaceutics, 2025)

What was measured:
[1] = Stability of the radiopeptides in mouse blood plasma
Protocol: (§1) The radiopeptides (50 MBq/nmol) stabilized with L-ascorbic acid were diluted in mouse and human blood plasma and incubated at 37 °C. Aliquots were taken after 1, 4, and 24 h and analyzed using reversed-phase thin-layer chromatography (TLC) (Supporting Information).
(§2) aProduct peak expressed as percentage of the sum of integrated peak areas of the entire chromatogram relative to
(§3) the value obtained immediately after labeling (set as 100%), average ± standard deviation (SD) (n=3).
(§4) Stability of the Radiopeptides in Mouse and Human Blood Plasma
(§5) Purpose: The stability of the radiopeptides was assessed in mouse and human blood plasma as an
indication for their in vivo stability.
(§6) Methods: The radiopeptides (50 MBq/nmol) stabilized with L-ascorbic acid were diluted in mouse
(§7) blood plasma (Lot: 32321, Rockland Immunochemicals Inc., U.S.A.) or in human blood plasma
(§8) (Stiftung Blutspende SRK Aargau -Solothurn, Switzerland) at a concentration of 10 MBq/200 µL and
(§9) incubated at 37 °C over a 24 h time period. Control samples were prepared by diluting the radiopeptides
(§10) in saline at the same activity concentration. Aliquots of each dilution were taken after 1 h, 4 h, and 24 h
(§11) (2 µL, ~100 kBq) and investigated employing thin layer chromatography (TLC) methods on reversed-
(§12) phase TLC plates (MERCK Analytical Chromatography, TLC Silica gel 60 RP -18 F254s) as stationary
(§13) phase and a 3/7 (v/v) mixture of acetonitrile /citrate buffer (0.1 M, pH 5.5) as mobile phase. A dilution
(§14) of [177Lu]LuCl3/HCl 0.04 M (10 MBq/200 µL) was added on each TLC plate. The developed and dried
(§15) TLC plates were exposed to a phosphor screen (Super resolution screen PSR10450013, PerkinElmer)
(§16) for 1 min. The screen was read with a Cyclone Plus phosphor imager (PerkinElmer) and the peak
(§17) quantification was performed using OptiQuant Software (version 5.0).

human uPAR = biological target: T1, human uPAR (Homo sapiens, UniProt Q03405); test: uPAR-binding affinity (KD values), saturation experiments with HEK-uPAR cells; details: saturation binding on HEK-uPAR cells, on ice (4 °C) 1 h, 1–1600 nM radiopeptide, ± AE105 40 µM; γ-counter; nonlinear regression; average ± SD, n=3
T1 construct: host or cells: HEK cells (HEK-uPAR)
T1 sequence (Q03405 23-335): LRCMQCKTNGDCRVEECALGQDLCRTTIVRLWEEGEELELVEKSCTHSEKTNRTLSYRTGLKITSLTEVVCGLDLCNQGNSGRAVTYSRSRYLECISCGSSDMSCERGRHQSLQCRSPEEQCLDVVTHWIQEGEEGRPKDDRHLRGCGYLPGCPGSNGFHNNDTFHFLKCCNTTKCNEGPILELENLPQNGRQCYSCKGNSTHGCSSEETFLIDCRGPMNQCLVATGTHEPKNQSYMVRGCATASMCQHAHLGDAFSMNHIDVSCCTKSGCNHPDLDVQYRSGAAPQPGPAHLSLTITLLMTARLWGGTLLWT
Protocol: To determine the uPAR-binding affinity of the radiopeptides, saturation experiments were performed using HEK-uPAR cells in 48-well plates (Supporting Information). The cells were incubated on ice for 1 h in the presence or absence of excess AE105 (final concentration of 40 μM) together with the respective radiopeptide at a concentration range of 1–1600 nM. After rinsing the cells with PBS, they were lysed with an aqueous NaOH solution (1 M, 600 μL), transferred to radioimmunoassay tubes, and measured in a γ-counter (1480 Wizard, PerkinElmer). The K D values were determined by plotting the specific binding (values of samples incubated without AE105 minus the values of samples incubated with AE105) against the molar concentration of the added peptide. A nonlinear regression analysis was performed using GraphPad Prism software (version 8.3.1). The results were expressed as average ± SD of n = 3 independently performed experiments. […]
7. Determination of uPAR-Binding Affinity (KD Values)
Purpose: The uPAR-binding affinity of the radiopeptides were determined to investigate the impact of structural changes on the receptor binding.
Methods: HEK-uPAR cells were seeded in poly-D-lysine-coated 48-well plates (0.25 × 10 6 in 0.5 mL per well) using DMEM cell culture medium with supplements. The cells were incubated at 37 °C and 5% CO2 overnight to allow adhesion and growth. After removing the supernatant, the well plates with HEK-uPAR cells were placed on ice to prevent internalization of the radiopeptides. The cells were rinsed with cold PBS (0.5 mL, pH 7.4) followed by the addition of DMEM cell culture medium without supplements (450 µL/well) in the presence or absence of AE105 ( final concentration 40 µM) as a receptor-blocking agent. The radiopeptides (5 MBq/nmol) were diluted in PBS to obtain peptide concentrations ranging from 10 ‒16000 nM. From each dilution, 50 µL were added to each well to obtain final peptide concentrations of 1 nM to 1600 nM. The cells were incubated at 4 °C for 1 h before rinsing twice with PBS (0.5 mL, pH 7.4). The cells were lysed using an aqueous NaOH solution (1 M, 600 µL) and the lysates were transferred to RIA tubes for counting the activity in a γ-counter (1480 Wizard, PerkinElmer) . The KD values were determined by plotting specific binding (total binding minus unspecific binding) against the molar concentration of the added radiopeptide using GraphPad Prism (version 8.3.1). the results were then expressed as average K D values ± SD of n = 3 independent […]
Results: The results are reported in the main article.

[2] = Stability of the radiopeptides in human blood plasma
Protocol: as §1, §2, §3, §4, §5
indication for their in vivo stability.
as §6, §7, §8, §9, §10, §11, §12, §13, §14, §15, §16, §17

[3] = Radiolytic stability of the radiopeptides in saline with L-ascorbic acid; details: 50 MBq/nmol in saline, 150 MBq/300 µL, L-ascorbic acid (3 mg, 20 µL) and NaOAc (0.5 M, 30 µL), HPLC, product peak relative to t=0 (100%), average ± SD, n=3
[4] = n-Octanol/PBS distribution coefficients (logD values); details: n-octanol/PBS pH 7.4, pH 7.4
Protocol: The radiopeptides diluted in phosphate-buffered saline (PBS) pH 7.4 (25 μL, ∼0.5 MBq, 0.01 nmol) were added to a mixture of PBS pH 7.4 (1475 μL) and n-octanol (1500 μL). The vials were vortexed vigorously for 1 min, followed by centrifugation (560 rcf, 6 min) for phase separation. Aliquots were taken from each phase and measured in a γ-counter (1480 Wizard, PerkinElmer). The distribution coefficients were calculated as the logarithmic value of the ratio of counts per minute (cpm) measured in the n-octanol phase relative to the cpm measured in the PBS phase.
Methods: The logD value of all radiopeptides was determined in a mixture of n-octanol and phosphate
buffered saline (PBS) pH 7.4 using phase separation followed by liquid-liquid extraction.
polystyrene radioimmunoassay (RIA) tubes were prepared for each radiopeptide with 1.5 mL n-octanol
and 1.475 mL PBS pH 7.4. The RIA tubes were rigorously vortexed and subsequently let to stand so
that the phase separation could take place. The radiopeptides (50 MBq/nmol) were diluted with PBS
pH 7.4 to obtain an activity concentration of 10 MBq/0.5 mL. A volume of 25 μL of these solutions
was added to each RIA tube (25 µL, ~0.5 MBq, 0.01 nmol) followed by vortexing for 1 min.
separation was achieved by centrifugation at 560 rcf for 6 min. The activity in the n-octanol and PBS
phase, respectively, was measured in a γ-counter (Wallac Wizard 1480, PerkinElmer).
coefficients were calculated as the logarithm of the ratio of counts per minute (cpm) measured in the n-
octanol phase relative to the cpm measured in the PBS pH 7.4 phase.
as described above three independent times for each radiopeptide.

[5] = Biodistribution studies in HEK-uPAR xenograft-bearing nude mice; details: female, mouse, 0.5 nmol, total radioactivity, 5 MBq, 0.5 nmol, decay-corrected, average ± SD, n=3 animals; for tissue uptake at 4 h: 4 h p.i.; for tissue uptake at 24 h: 24 h p.i.
Protocol: All applicable international, national, and/or institutional guidelines for the care and use of laboratory animals were followed, and the herein reported experiments were carried out according to the guidelines of the Swiss Regulations for Animal Welfare. The preclinical studies were ethically approved by the Cantonal Committee of Animal Experimentation and permitted by the responsible cantonal authorities (License No. 75721). Five-week-old female CD1/nude (Crl:CD1-Foxn ^ nu ) and female immunocompetent FVB (FVB/NCrl) mice were obtained from Charles River Laboratories (Sulzfeld, Germany). All mice were acclimatized for at least 7 days, receiving standard rodent chow ad libitum before being included in the reported studies. The CD1/nude mice were subcutaneously inoculated with HEK-uPAR cells (7 × 10^6 cells in 100 μL PBS) on the right shoulder. […] Typically, it took 3–11 weeks to reach xenograft volumes of 40–600 mm^3 at the time of testing the tissue distribution of the radiopeptides. The immunocompetent FVB mice were used for testing the in vivo stability of the radiopeptides.
The mice were injected with the radiopeptides (5 MBq, 0.5 nmol, 100 μL) in saline containing 0.05% BSA and sacrificed at 4 and 24 h after injection of the radiopeptides. Selected tissues and organs were collected, weighed, and measured with the γ-counter (1480 Wizard, PerkinElmer). […] A p-value of <0.05 was considered a statistically significant difference (GraphPad Prism software, version 8.3.1).
Decay-corrected data is shown as average ± SD of n = 3 animals of % injected activity per gram (IA/g) tissue.

[6] = system: mouse serum albumin (MSA); test: Albumin-binding properties in mouse blood plasma (ultrafiltration assay); details: ultrafiltration (Amicon, 10 kDa), mouse blood plasma dilutions in PBS pH 7.4, [MSA]-to-[radiopeptide] 0.01–12500, 0.006 nmol, 37 °C 30 min, γ-counter; inverse ratio of B50, [177Lu]Lu-uPAR-01 set as 1.00; average curve of 3 experiments
Protocol: The relative albumin-binding affinities of the radiopeptides in mouse and human blood plasma were determined using an ultrafiltration assay with Amicon centrifugal filters (cutoff of 10 kDa; Merck Millipore), as previously reported (Supporting Information). A fixed amount of the respective radiopeptide (15 μL, ∼300 kBq, 0.006 nmol) was added to a defined volume (150 μL) of mouse and human blood plasma dilutions to obtain [mouse serum albumin (MSA)]-to-[radiopeptide] and [human serum albumin (HSA)]-to-[radiopeptide] molar concentration ratios of 0.01–12,500 and 0.01–20,000, respectively. The data were analyzed using a semilogarithmic Hill plot with the maximum binding set as 100% (GraphPad Prism software, version 8.3.1).
Determination of the Albumin-Binding Properties
Purpose: The radiopeptides were investigated with regard to their albumin-binding capabilities in vitro
as a measure to predict blood retention in vivo.
Methods: The relative albumin-binding affinity of the radiopeptides in mouse blood plasma (Rockland
Immunochemicals, Inc., U.S.A.) and human blood plasma (Stiftung Blutspende SRK Aargau-
Solothurn, Switzerland) were determined using an ultrafiltration method. The amount of mouse serum
albumin (MSA) and human serum albumin (HSA) in mouse and human blood plasma was defined as
550 μM and 800 μM, respectively, based on measurements using a dry chemistry analyzer (DRI-CHEM
4000i, FUJIFILM, Japan). A fixed amount of radiopeptide (50 MBq/nmol, ~300 kBq, 15 μL, 0.006
nmol) was added to a defined volume (150 μL) of mouse and human blood plasma and various dilutions
thereof in PBS pH 7.4, resulting in defined [MSA]-to-[radiopeptide] or [HSA]-to-[radiopeptide] molar
concentration ratios ranging from 0.01 ‒12500 and 0.01‒20000, respectively, followed by incubation of
the samples at 37 °C for 30 min. Ice-cold PBS (150 µL, pH 7.4) was added before loading the blood
plasma samples on Amicon centrifugal filters (cut -off of 10 kDa; Merck Millipore) followed by
centrifugation (14000 rcf, 30 min, 4 °C) to allow the separation of the plasma protein -bound from the
plasma-unbound (free) fractions of each sample. The inserts of the filter devices were inverted and centrifuged at 200 rcf for 3 min to recover the protein -bound radiopeptide. The activity in the filtrate
and filter unit was measured in a γ-counter (1480 Wizard, PerkinElmer) and the counts were combined
assuming that the fraction retained in the filter membrane was not bound to proteins. The protein -bound
fraction was expressed as percentage of the whole activity (i.e. plasma protein -bound activity, activity
measured in the filtrate and activity measured in the filter (set as 100%) ). The data were analyzed using
a semi-logarithmic plot assuming a maximum binding of 100%. The Hill equation was fitted to the data
points and the half -maximum binding ( B50) based on the average curve obtained from three independent
experiments (GraphPad Prism software, version 8.3 .1). The relative albumin-binding affinit ies of the
reference compound, whose relative binding affinity was set as 1.0. The results were presented as the
B50 value obtained from the average curve from 3 independent experiments.

[7] = system: human serum albumin (HSA); test: Albumin-binding properties in human blood plasma (ultrafiltration assay); details: ultrafiltration (Amicon, 10 kDa), human blood plasma dilutions in PBS pH 7.4, [HSA]-to-[radiopeptide] 0.01–20000, 0.006 nmol, 37 °C 30 min, γ-counter; inverse ratio of B50, [177Lu]Lu-uPAR-01 set as 1.00; average curve of 3 experiments
[8] = CD1/nude (Crl:CD1-Foxn nu), HEK-uPAR xenograft, HEK-uPAR xgft
[9] = CD1/nude (Crl:CD1-Foxn nu), liver, Liver
[10] = CD1/nude, blood, 5 MBq (0.5 nmol)
[11] = CD1/nude, bone, 5 MBq (0.5 nmol)
[12] = CD1/nude, brain, 5 MBq (0.5 nmol)
[13] = CD1/nude, heart, 5 MBq (0.5 nmol)
[14] = CD1/nude, intestines, 5 MBq (0.5 nmol)
[15] = CD1/nude, kidneys, 5 MBq (0.5 nmol)
[16] = CD1/nude, liver, 5 MBq (0.5 nmol)
[17] = CD1/nude, lung, 5 MBq (0.5 nmol)
[18] = CD1/nude, muscle, 5 MBq (0.5 nmol)
[19] = CD1/nude, pancreas, 5 MBq (0.5 nmol)
[20] = CD1/nude, salivary glands, 5 MBq (0.5 nmol)
[21] = CD1/nude, spleen, 5 MBq (0.5 nmol)
[22] = CD1/nude, stomach, 5 MBq (0.5 nmol)

Question: What does the source list for `CC(C)C[C@H](NC(=O)[C@H](Cc1ccc(O)cc1)NC(=O)[C@@H](CCCNC(=N)N)NC(=O)[C@@H](CO)NC(=O)[C@H](Cc1ccccc1)NC(=O)[C@H](CC1CCCCC1)NC(=O)[C@H](CC(=O)O)NC(=O)CN1CCN(CC(=O)O)CCN(CC(=O)O)CCN(CC(=O)O)CC1)C(=O)N[C@@H](Cc1c[nH]c2ccccc12)C(=O)N[C@@H](CO)C(N)=O` [[^177Lu]Lu-DOTA-AE105, metal not drawn, reference compound]?
Answer: Intact radiopeptide in mouse blood plasma [%] ([1]; 24 h, mouse blood plasma, 10 MBq/200 µL, 50 MBq/nmol, stabilized with L-ascorbic acid, 37 °C, reversed-phase TLC, phosphor imager, relative to t=0 (100%), average ± SD, n=3): ~4.5%; remaining at 1 h, 10 MBq/200 µL ([1]; mouse, blood plasma): 61 ± 6%; remaining at 24 h, 10 MBq/200 µL ([1]; mouse, blood plasma): 4.6 ± 2.2%; remaining at 4 h, 10 MBq/200 µL ([1]; mouse, mouse blood plasma): ~13%; Kd (human uPAR): 20 ± 1 nM; Intact radiopeptide in human blood plasma [%] ([2]; 24 h, human blood plasma, 10 MBq/200 µL, 50 MBq/nmol, stabilized with L-ascorbic acid, 37 °C, reversed-phase TLC, phosphor imager, relative to t=0 (100%), average ± SD, n=3): ~4.5%; remaining at 1 h, 10 MBq/200 µL ([2]; human, blood plasma): 71 ± 3%; remaining at 24 h, 10 MBq/200 µL ([2]; human, blood plasma): 4.5 ± 1.2%; remaining at 4 h, 10 MBq/200 µL ([2]; human, human blood plasma): ~13%; radiolytic stability, % intact radiopeptide ([3]; 1 h): 98 ± 2%; radiolytic stability, % intact radiopeptide ([3]; 4 h): 98 ± 1%; logD [4]: -1.38 ± 0.18; tissue uptake at 4 h [5, 8]: < 1 %ID/g; tissue uptake at 24 h [5, 8]: 0.4 ± 0.19 %ID/g; tissue uptake at 4 h [5, 9]: < 0.2 %ID/g; tissue uptake at 24 h [5, 9]: < 0.2 %ID/g; tissue uptake at 4 h ([5]; CD1/nude (Crl:CD1-Foxn nu), whole blood, Blood): < 0.1 %ID/g; tissue uptake at 4 h [5, 10]: 0.08 ± 0.01 %ID/g; tissue uptake at 24 h [5, 10]: < 0.05 %ID/g; tissue uptake at 4 h [5, 11]: 0.38 ± 0.03 %ID/g; tissue uptake at 24 h [5, 11]: 0.84 ± 0.1 %ID/g; tissue uptake at 4 h [5, 12]: < 0.05 %ID/g; tissue uptake at 24 h [5, 12]: < 0.05 %ID/g; tissue uptake at 4 h [5, 13]: 0.06 ± 0.01 %ID/g; tissue uptake at 24 h [5, 13]: < 0.05 %ID/g; tissue uptake at 4 h [5, 14]: 0.31 ± 0.03 %ID/g; tissue uptake at 24 h [5, 14]: 0.18 ± 0.02 %ID/g; tissue uptake at 4 h [5, 15]: 1.5 ± 0.1 %ID/g; tissue uptake at 24 h [5, 15]: 1.3 ± 0.1 %ID/g; tissue uptake at 4 h [5, 16]: 0.1 ± 0.01 %ID/g; tissue uptake at 24 h [5, 16]: 0.17 ± 0.01 %ID/g; tissue uptake at 4 h [5, 17]: 0.3 ± 0.02 %ID/g; tissue uptake at 24 h [5, 17]: 0.21 ± 0.01 %ID/g; tissue uptake at 4 h [5, 18]: < 0.05 %ID/g; tissue uptake at 24 h [5, 18]: < 0.05 %ID/g; tissue uptake at 4 h [5, 19]: 0.06 ± 0.01 %ID/g; tissue uptake at 24 h [5, 19]: 0.06 ± 0.01 %ID/g; tissue uptake at 4 h [5, 20]: 0.09 ± 0.01 %ID/g; tissue uptake at 24 h [5, 20]: 0.09 ± 0.01 %ID/g; tissue uptake at 4 h [5, 21]: 0.18 ± 0.02 %ID/g; tissue uptake at 24 h [5, 21]: 0.23 ± 0.04 %ID/g; tissue uptake at 4 h [5, 22]: 0.15 ± 0.03 %ID/g; tissue uptake at 24 h [5, 22]: 0.17 ± 0.03 %ID/g; Relative albumin-binding affinity, mouse blood plasma [6]: 0.02; Relative albumin-binding affinity, human blood plasma [7]: 0.01
